Data published in ChEMBL document CHEMBL1201861, “Genomics of Drug Sensitity in Cancer screening data, Wellcome Trust Sanger Institute”.

Assays:
Assay in all cases: cells
SW13 = type: functional, cell-based; details: Homo sapiens;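 also: IC50 is inhibition of SW13 cell growth, read out with a cell viability assay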
Description: SANGER: Inhibition of human SW13 cell growth in a cell viability assay.

SK-MEL-28 = type: functional, cell-based; details: Homo sapiens;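 also: growth inhibition of human SK-MEL-28 cells, read out with a cell viability assay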
Description: SANGER: Inhibition of human SK-MEL-28 cell growth in a cell viability assay.

KYSE-270 = type: functional, cell-based; details: Homo sapiens;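 also: cell growth inhibition measured with a viability assay in the human KYSE-270 line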
Description: SANGER: Inhibition of human KYSE-270 cell growth in a cell viability assay.

SW1088 = type: functional, cell-based; details: Homo sapiens;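 also: growth inhibition of human SW1088 cells, read out by a cell viability assay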
Description: SANGER: Inhibition of human SW1088 cell growth in a cell viability assay.

DMS-273 = type: functional, cell-based; details: Homo sapiens
Description: SANGER: Inhibition of human DMS-273 cell growth in a cell viability assay.

G-402 = type: functional, cell-based; details: Homo sapiens
Description: SANGER: Inhibition of human G-402 cell growth in a cell viability assay.

WM-115 = type: functional, cell-based; details: Homo sapiens
Description: SANGER: Inhibition of human WM-115 cell growth in a cell viability assay.

MKN-1 = type: functional, cell-based; details: Homo sapiens;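 also: growth inhibition of human MKN1 cells, read out by a cell viability measurement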
Description: SANGER: Inhibition of human MKN1 cell growth in a cell viability assay.

MC-IXC = type: functional, cell-based; details: Homo sapiens;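 also: growth inhibition of MC-IXC cells, read out with a cell viability assay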
Description: SANGER: Inhibition of human MC-IXC cell growth in a cell viability assay.

OAW-28 = type: functional, cell-based; details: Homo sapiens;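 also: growth inhibition of OAW-28 cells, read out with a cell viability assay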
Description: SANGER: Inhibition of human OAW-28 cell growth in a cell viability assay.

MDA-MB-231 = type: functional, cell-based; details: Homo sapiens
Description: SANGER: Inhibition of human MDA-MB-231 cell growth in a cell viability assay.

MeWo = type: functional, cell-based; details: Homo sapiens;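 also: growth inhibition of MeWo cells, determined by a cell viability readout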
Description: SANGER: Inhibition of human Mewo cell growth in a cell viability assay.

Ca9-22 = type: functional, cell-based; details: Homo sapiens;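 also: growth inhibition of Ca9-22 cells, read out with a cell viability assay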
Description: SANGER: Inhibition of human Ca9-22 cell growth in a cell viability assay.

BXPC-3 = type: functional, cell-based; details: Homo sapiens;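 also: growth inhibition of human BxPC-3 cells, read out by a cell viability assay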
Description: SANGER: Inhibition of human BxPC-3 cell growth in a cell viability assay.

CHP-212 = type: functional, cell-based; details: Homo sapiens
Description: SANGER: Inhibition of human CHP-212 cell growth in a cell viability assay.

ACHN = type: functional, cell-based; details: Homo sapiens;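 also: cell viability read-out used to gauge how strongly growth of human ACHN cells is suppressed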
Description: SANGER: Inhibition of human ACHN cell growth in a cell viability assay.

YT = type: functional, cell-based, Homo sapiens; details: Homo sapiens, YT
Description: SANGER: Inhibition of human YT cell growth in a cell viability assay.

WSU-NHL = type: functional, cell-based, Homo sapiens; details: Homo sapiens, WSU-NHL;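 also: growth inhibition of human WSU-NHL cells, read out with a cell viability assay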
Description: SANGER: Inhibition of human WSU-NHL cell growth in a cell viability assay.

LoVo = type: functional, cell-based; details: Homo sapiens;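 also: growth inhibition of human LoVo cells, read out with a cell viability assay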
Description: SANGER: Inhibition of human LoVo cell growth in a cell viability assay.

LB373-MEL-D = type: functional, cell-based, Homo sapiens; details: Homo sapiens, LB373-MEL-D;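 also: growth inhibition of the cell line, read out in a cell viability assay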
Description: SANGER: Inhibition of human LB373-MEL-D cell growth in a cell viability assay.

OVCAR-5 = type: functional, cell-based; details: Homo sapiens;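 also: growth inhibition of human OVCAR-5 cells, read out with a cell viability assay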
Description: SANGER: Inhibition of human OVCAR-5 cell growth in a cell viability assay.

EB-3 = type: functional, cell-based, Homo sapiens; details: Homo sapiens, EB-3;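 also: human EB-3 cells, growth inhibition read out via a cell viability assay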
Description: SANGER: Inhibition of human EB-3 cell growth in a cell viability assay.

SK-HEP1 = type: functional, cell-based, SK-HEP-1; details: Homo sapiens;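 also: cell viability readout used to quantify reduction in proliferation of human SK-HEP-1 cells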
Description: SANGER: Inhibition of human SK-HEP-1 cell growth in a cell viability assay.

NCI-H716 = type: functional, cell-based, Homo sapiens; details: Homo sapiens, NCI-H716;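 also: growth inhibition of human NCI-H716 cells, measured by a cell viability assay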
Description: SANGER: Inhibition of human NCI-H716 cell growth in a cell viability assay.

P31-FUJ = type: functional, cell-based, Homo sapiens; details: Homo sapiens, P31-FUJ;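 also: growth inhibition of P31-FUJ cells, read out with a viability assay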
Description: SANGER: Inhibition of human P31-FUJ cell growth in a cell viability assay.

G-361 = type: functional, cell-based; details: Homo sapiens
NCI-H650 = type: functional, cell-based; details: Homo sapiens;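 also: growth inhibition of NCI-H650 cells, read out by a viability assay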
Description: SANGER: Inhibition of human NCI-H650 cell growth in a cell viability assay.

CWR22R = type: functional, cell-based; details: Homo sapiens, 22Rv1;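 also: growth inhibition of 22Rv1 cells, read out with a cell viability assay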
Description: SANGER: Inhibition of human 22RV1 cell growth in a cell viability assay.

CAMA-1 = type: functional, cell-based; details: Homo sapiens;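 also: growth inhibition of CAMA-1 cells, read out with a cell viability assay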
Description: SANGER: Inhibition of human CAMA-1 cell growth in a cell viability assay.

NCI-H810 = type: functional, cell-based; details: Homo sapiens;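 also: IC50 reflects inhibition of cancer cell line growth, read out with a cell viability assay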
Description: SANGER: Inhibition of human NCI-H810 cell growth in a cell viability assay.

HuTu80 = type: functional, cell-based, Homo sapiens, HUTU-80; details: Homo sapiens, HuTu80;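 also: growth inhibition of HuTu80 human cells, determined with a cell viability readout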
Description: SANGER: Inhibition of human HUTU-80 cell growth in a cell viability assay.

IMR-5 = type: functional, cell-based, Homo sapiens; details: Homo sapiens, IMR-5; read-out: IC50;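 also: growth inhibition of human IMR-5 cells, read out with a cell viability assay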
Description: SANGER: Inhibition of human IMR-5 cell growth in a cell viability assay.

RD = type: functional, cell-based; details: Homo sapiens
Description: SANGER: Inhibition of human RD cell growth in a cell viability assay.

SNU-387 = type: functional, cell-based; details: Homo sapiens
Description: SANGER: Inhibition of human SNU-387 cell growth in a cell viability assay.

SW1463 = type: functional, cell-based; details: Homo sapiens;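 also: growth inhibition of SW1463 cells, determined with a cell viability assay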
Description: SANGER: Inhibition of human SW1463 cell growth in a cell viability assay.

COR-L105 = type: functional, cell-based; details: Homo sapiens;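 also: cell growth inhibition determined with a viability assay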
Description: SANGER: Inhibition of human COR-L105 cell growth in a cell viability assay.

NCI-H2228 = type: functional, cell-based; details: Homo sapiens;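 also: growth inhibition of human NCI-H2228 cells, read out by a cell viability assay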
Description: SANGER: Inhibition of human NCI-H2228 cell growth in a cell viability assay.

NCI-H889 = type: functional, cell-based, Homo sapiens; details: Homo sapiens, NCI-H889;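 also: cell growth inhibition of the cell line, read out with a viability assay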
Description: SANGER: Inhibition of human NCI-H889 cell growth in a cell viability assay.

HuO-3N1 = type: functional, cell-based; details: Homo sapiens;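 also: cell viability readout used to measure how strongly compounds suppress proliferation of human HuO-3N1 cells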
Description: SANGER: Inhibition of human HuO-3N1 cell growth in a cell viability assay.

CAPAN-1 = type: functional, cell-based; details: Homo sapiens;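 also: growth suppression of CAPAN-1 cells, read out by a cell viability assay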
Description: SANGER: Inhibition of human CAPAN-1 cell growth in a cell viability assay.

NCI-H2030 = type: functional, cell-based; details: Homo sapiens;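 also: growth inhibition of human NCI-H2030 cells, read out by a cell viability assay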
Description: SANGER: Inhibition of human NCI-H2030 cell growth in a cell viability assay.

ChaGo-K-1 = type: functional, cell-based; details: Homo sapiens;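 also: growth inhibition of ChaGo-K-1 cells, read out with a cell viability assay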
Description: SANGER: Inhibition of human ChaGo-K-1 cell growth in a cell viability assay.

SK-LU-1 = type: functional, cell-based; details: Homo sapiens;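 also: cell viability assay measuring growth inhibition of human SK-LU-1 cells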
Description: SANGER: Inhibition of human SK-LU-1 cell growth in a cell viability assay.

BHY = type: functional, cell-based; details: Homo sapiens;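 also: cell growth inhibition read out by a viability assay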
Description: SANGER: Inhibition of human BHY cell growth in a cell viability assay.

KARPAS-422 = type: functional, cell-based, Homo sapiens; details: Homo sapiens, KARPAS-422
Description: SANGER: Inhibition of human KARPAS-422 cell growth in a cell viability assay.

HTC-C3 = type: functional, cell-based; details: Homo sapiens;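 also: inhibition of cell growth, read out with a cell viability assay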
Description: SANGER: Inhibition of human HTC-C3 cell growth in a cell viability assay.

LU-165 = type: functional, cell-based, Homo sapiens; details: Homo sapiens, LU-165
Description: SANGER: Inhibition of human LU-165 cell growth in a cell viability assay.

HSC-2 = type: functional, cell-based; details: Homo sapiens;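 also: growth inhibition of human HSC-2 cells, read out by a cell viability assay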
Description: SANGER: Inhibition of human HSC-2 cell growth in a cell viability assay.

SNU-423 = type: functional, cell-based; details: Homo sapiens
Description: SANGER: Inhibition of human SNU-423 cell growth in a cell viability assay.

ESS-1 = type: functional, cell-based; details: Homo sapiens;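 also: growth inhibition of human ESS-1 cells, read out by a cell viability assay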
Description: SANGER: Inhibition of human ESS-1 cell growth in a cell viability assay.

SW1783 = type: functional, cell-based; details: Homo sapiens;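 also: cell growth inhibition measured with a viability assay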
Description: SANGER: Inhibition of human SW1783 cell growth in a cell viability assay.

SW-620 = type: functional, cell-based; details: Homo sapiens;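 also: growth inhibition of human SW-620 cells, measured by a cell viability assay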
Description: SANGER: Inhibition of human SW620 cell growth in a cell viability assay.

NB12 = type: functional, cell-based; details: Homo sapiens;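 also: growth inhibition of human NB12 cells, read out by a cell viability assay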
Description: SANGER: Inhibition of human NB12 cell growth in a cell viability assay.

MFH-ino = type: functional, cell-based, Homo sapiens; details: Homo sapiens, MFH-ino;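 also: growth inhibition of human MFH-ino cells, read out by a cell viability assay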
Description: SANGER: Inhibition of human MFH-ino cell growth in a cell viability assay.

NCI-H2342 = type: functional, cell-based; details: Homo sapiens;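 also: growth inhibition of the cancer cell line, determined with a cell viability assay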
Description: SANGER: Inhibition of human NCI-H2342 cell growth in a cell viability assay.

CAL-72 = type: functional, cell-based; details: Homo sapiens;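 also: cell viability assay measuring inhibition of proliferation in the CAL-72 cell line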
Description: SANGER: Inhibition of human CAL-72 cell growth in a cell viability assay.

SCC-25 = type: functional, cell-based; details: Homo sapiens;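 also: growth inhibition of SCC-25 cells, measured with a cell viability assay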
Description: SANGER: Inhibition of human SCC-25 cell growth in a cell viability assay.

HT-1376 = type: functional, cell-based; details: Homo sapiens
Description: SANGER: Inhibition of human HT-1376 cell growth in a cell viability assay.

NCI-H1755 = type: functional, cell-based; details: Homo sapiens;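 also: cell viability readout used to measure growth inhibition of NCI-H1755 cells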
Description: SANGER: Inhibition of human NCI-H1755 cell growth in a cell viability assay.

KMS-12-PE = type: functional, cell-based, Homo sapiens; details: Homo sapiens, KMS-12-PE;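 also: growth inhibition of human KMS-12-PE cells, measured with a cell viability assay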
Description: SANGER: Inhibition of human KMS-12-PE cell growth in a cell viability assay.

Question: With COc1ccc(-c2cc3nccn3c(Nc3ncccc3C(N)=O)n2)cc1OC as the molecule, how does the IC50 (SW13) read?
Answer: > 8 µM

Question: What about the IC50 (SK-MEL-28) of the same molecule?
Answer: > 8 µM

Question: What about the IC50 (KYSE-270) of the same molecule?
Answer: 1450 nM

Question: And the IC50 (SW1088)?
Answer: > 8 µM

Question: What about the IC50 (DMS-273) of the same molecule?
Answer: 6.61 µM

Question: And the IC50 (G-402)?
Answer: 6.9 µM

Question: And the IC50 (WM-115)?
Answer: > 8 µM

Question: And the IC50 (MKN-1)?
Answer: 7.3 µM

Question: What about the IC50 (MC-IXC) of the same molecule?
Answer: > 8 µM

Question: What about the IC50 (OAW-28) of the same molecule?
Answer: > 8 µM

Question: And the IC50 (MDA-MB-231)?
Answer: > 8 µM

Question: And the IC50 (MeWo)?
Answer: > 8 µM

Question: And the IC50 (Ca9-22)?
Answer: > 8 µM

Question: What about the IC50 (BXPC-3) of the same molecule?
Answer: 2860 nM

Question: What about the IC50 (CHP-212) of the same molecule?
Answer: 6.45 µM

Question: And the IC50 (ACHN)?
Answer: 1380 nM

Question: And the IC50 (YT)?
Answer: 2340 nM

Question: And the IC50 (WSU-NHL)?
Answer: 1380 nM

Question: What about the IC50 (LoVo) of the same molecule?
Answer: 2610 nM

Question: What about the IC50 (LB373-MEL-D) of the same molecule?
Answer: > 8 µM

Question: What about the IC50 (OVCAR-5) of the same molecule?
Answer: 7.41 µM

Question: And the IC50 (EB-3)?
Answer: > 8 µM

Question: What about the IC50 (SK-HEP1) of the same molecule?
Answer: 1820 nM

Question: And the IC50 (NCI-H716)?
Answer: > 8 µM

Question: What about the IC50 (P31-FUJ) of the same molecule?
Answer: > 8 µM

Question: And the IC50 (G-361)?
Answer: 4.3 µM

Question: What about the IC50 (NCI-H650) of the same molecule?
Answer: > 8 µM

Question: And the IC50 (CWR22R)?
Answer: > 8 µM

Question: What about the IC50 (CAMA-1) of the same molecule?
Answer: > 8 µM

Question: What about the IC50 (NCI-H810) of the same molecule?
Answer: 4.44 µM

Question: What about the IC50 (HuTu80) of the same molecule?
Answer: 1810 nM

Question: What about the IC50 (IMR-5) of the same molecule?
Answer: 6.08 µM

Question: And the IC50 (RD)?
Answer: > 8 µM

Question: And the IC50 (SNU-387)?
Answer: 2900 nM

Question: And the IC50 (SW1463)?
Answer: > 8 µM

Question: And the IC50 (COR-L105)?
Answer: 1140 nM

Question: What about the IC50 (NCI-H2228) of the same molecule?
Answer: 4.34 µM

Question: And the IC50 (NCI-H889)?
Answer: > 8 µM

Question: What about the IC50 (HuO-3N1) of the same molecule?
Answer: > 8 µM

Question: And the IC50 (CAPAN-1)?
Answer: 4.16 µM

Question: What about the IC50 (NCI-H2030) of the same molecule?
Answer: 6.25 µM

Question: And the IC50 (ChaGo-K-1)?
Answer: > 8 µM

Question: What about the IC50 (SK-LU-1) of the same molecule?
Answer: 2030 nM

Question: And the IC50 (BHY)?
Answer: 2810 nM

Question: What about the IC50 (KARPAS-422) of the same molecule?
Answer: 2500 nM

Question: And the IC50 (HTC-C3)?
Answer: > 8 µM

Question: What about the IC50 (LU-165) of the same molecule?
Answer: 7.97 µM

Question: And the IC50 (HSC-2)?
Answer: 4.53 µM

Question: And the IC50 (SNU-423)?
Answer: > 8 µM

Question: And the IC50 (ESS-1)?
Answer: 4.08 µM

Question: What about the IC50 (SW1783) of the same molecule?
Answer: > 8 µM

Question: What about the IC50 (SW-620) of the same molecule?
Answer: 3.31 µM

Question: And the IC50 (NB12)?
Answer: > 8 µM

Question: And the IC50 (MFH-ino)?
Answer: > 8 µM

Question: And the IC50 (NCI-H2342)?
Answer: 1820 nM

Question: And the IC50 (CAL-72)?
Answer: > 8 µM

Question: What about the IC50 (SCC-25) of the same molecule?
Answer: > 8 µM

Question: And the IC50 (HT-1376)?
Answer: 3.25 µM

Question: What about the IC50 (NCI-H1755) of the same molecule?
Answer: > 8 µM

Question: And the IC50 (KMS-12-PE)?
Answer: > 8 µM

Question: With COC(=O)[C@H](CCSC)NC(=O)c1ccc(NC[C@@H](N)CS)cc1-c1ccccc1 as the molecule, how does the IC50 (SW13) read?
Answer: > 1.02 µM

Question: What about the IC50 (SK-MEL-28) of the same molecule?
Answer: > 1.02 µM

Question: And the IC50 (KYSE-270)?
Answer: > 1020 nM

Question: And the IC50 (SW1088)?
Answer: > 1.02 µM

Question: What about the IC50 (DMS-273) of the same molecule?
Answer: > 1.02 µM

Question: What about the IC50 (G-402) of the same molecule?
Answer: > 1.02 µM

Question: What about the IC50 (WM-115) of the same molecule?
Answer: > 1.02 µM

Question: And the IC50 (MKN-1)?
Answer: > 1.02 µM

Question: What about the IC50 (MC-IXC) of the same molecule?
Answer: > 1.02 µM

Question: What about the IC50 (OAW-28) of the same molecule?
Answer: > 1.02 µM

Question: What about the IC50 (MDA-MB-231) of the same molecule?
Answer: > 1.02 µM

Question: What about the IC50 (MeWo) of the same molecule?
Answer: > 1.02 µM

Question: And the IC50 (Ca9-22)?
Answer: > 1.02 µM

Question: And the IC50 (BXPC-3)?
Answer: > 1020 nM

Question: What about the IC50 (CHP-212) of the same molecule?
Answer: > 1.02 µM

Question: What about the IC50 (ACHN) of the same molecule?
Answer: > 1020 nM

Question: What about the IC50 (YT) of the same molecule?
Answer: > 1020 nM

Question: What about the IC50 (WSU-NHL) of the same molecule?
Answer: > 1020 nM

Question: And the IC50 (LoVo)?
Answer: > 1020 nM

Question: And the IC50 (LB373-MEL-D)?
Answer: > 1.02 µM

Question: What about the IC50 (OVCAR-5) of the same molecule?
Answer: > 1.02 µM

Question: What about the IC50 (EB-3) of the same molecule?
Answer: > 1.02 µM

Question: And the IC50 (SK-HEP1)?
Answer: > 1020 nM

Question: What about the IC50 (NCI-H716) of the same molecule?
Answer: > 1.02 µM

Question: What about the IC50 (P31-FUJ) of the same molecule?
Answer: > 1.02 µM

Question: And the IC50 (G-361)?
Answer: > 1.02 µM

Question: What about the IC50 (NCI-H650) of the same molecule?
Answer: > 1.02 µM

Question: What about the IC50 (CWR22R) of the same molecule?
Answer: > 1.02 µM

Question: What about the IC50 (CAMA-1) of the same molecule?
Answer: > 1.02 µM

Question: And the IC50 (NCI-H810)?
Answer: > 1.02 µM

Question: What about the IC50 (HuTu80) of the same molecule?
Answer: > 1020 nM

Question: What about the IC50 (IMR-5) of the same molecule?
Answer: > 1.02 µM

Question: What about the IC50 (RD) of the same molecule?
Answer: > 1.02 µM

Question: What about the IC50 (SNU-387) of the same molecule?
Answer: > 1020 nM

Question: And the IC50 (SW1463)?
Answer: > 1.02 µM

Question: What about the IC50 (COR-L105) of the same molecule?
Answer: > 1020 nM

Question: And the IC50 (NCI-H2228)?
Answer: > 1.02 µM

Question: What about the IC50 (NCI-H889) of the same molecule?
Answer: > 1.02 µM

Question: And the IC50 (HuO-3N1)?
Answer: > 1.02 µM

Question: And the IC50 (CAPAN-1)?
Answer: > 1.02 µM

Question: What about the IC50 (NCI-H2030) of the same molecule?
Answer: > 1.02 µM

Question: What about the IC50 (ChaGo-K-1) of the same molecule?
Answer: > 1.02 µM

Question: And the IC50 (SK-LU-1)?
Answer: > 1020 nM

Question: And the IC50 (BHY)?
Answer: > 1020 nM

Question: And the IC50 (KARPAS-422)?
Answer: > 1020 nM

Question: And the IC50 (HTC-C3)?
Answer: > 1.02 µM

Question: And the IC50 (LU-165)?
Answer: > 1.02 µM

Question: And the IC50 (HSC-2)?
Answer: > 1.02 µM

Question: And the IC50 (SNU-423)?
Answer: > 1.02 µM

Question: And the IC50 (ESS-1)?
Answer: > 1.02 µM

Question: And the IC50 (SW1783)?
Answer: > 1.02 µM

Question: What about the IC50 (SW-620) of the same molecule?
Answer: > 1.02 µM

Question: And the IC50 (NB12)?
Answer: > 1.02 µM

Question: What about the IC50 (MFH-ino) of the same molecule?
Answer: > 1.02 µM

Question: And the IC50 (NCI-H2342)?
Answer: > 1020 nM

Question: And the IC50 (CAL-72)?
Answer: > 1.02 µM

Question: What about the IC50 (SCC-25) of the same molecule?
Answer: > 1.02 µM

Question: And the IC50 (HT-1376)?
Answer: > 1.02 µM

Question: And the IC50 (NCI-H1755)?
Answer: > 1.02 µM

Question: And the IC50 (KMS-12-PE)?
Answer: > 1.02 µM
